Tests used:
wild-type hGDH = target: T1, wild-type hGDH (Homo sapiens, UniProt P00367); assay: Biolayer interference-based binding assay (Ni-NTA biosensor), wild-type hGDH; conditions: His-tagged wild-type hGDH 20 μg/mL on Ni-NTA biosensor; read-out: estimated KD
T1 construct: confirming that these are the full-length wild-type hGDH; made in house; host or cells: E. coli BL21 (pET-30a)
Procedure: (§1) After immobilization of His-tagged wild-type GDH or hGDHH454Y (20 μg/mL) on a Ni-NTA biosensor, the probe was immersed in a series of dilutions of EGCG to measure binding.
(§2) The inhibitor/substrate binding assays were performed in 3 steps: step one is coating the Ni-NTA biosensor with the human wild type and the mutant GDH proteins (20 μg/mL) for 30 min; step two is dipping the coated individual sensor into a series dilution of substrates or inhibitors, such as EGCG (0, 1, 10, 100, 1000, 10000 μM; 10-fold dilution) or trypsin (0, 0.08, 0.25, 0.75, 2.25, 6.75 μM; 3-fold dilution) for 100 s, to obtain the on-rate (kon); step three is dipping to wash with phosphate-buffered saline (PBS) for 100 s. to measure the off-rate (koff). The KD was calculated by dividing […].

hGDHH454Y [1] = target: T2, hGDHH454Y (Homo sapiens, UniProt P00367, H507Y); assay: Biolayer interference-based binding assay (Ni-NTA biosensor), hGDHH454Y; conditions: His-tagged hGDHH454Y 20 μg/mL on Ni-NTA biosensor; read-out: estimated KD
T2 construct: made in house; host or cells: E. coli BL21 codon plus (pET-30a)
T2 sequence (P00367 54-558 H507Y): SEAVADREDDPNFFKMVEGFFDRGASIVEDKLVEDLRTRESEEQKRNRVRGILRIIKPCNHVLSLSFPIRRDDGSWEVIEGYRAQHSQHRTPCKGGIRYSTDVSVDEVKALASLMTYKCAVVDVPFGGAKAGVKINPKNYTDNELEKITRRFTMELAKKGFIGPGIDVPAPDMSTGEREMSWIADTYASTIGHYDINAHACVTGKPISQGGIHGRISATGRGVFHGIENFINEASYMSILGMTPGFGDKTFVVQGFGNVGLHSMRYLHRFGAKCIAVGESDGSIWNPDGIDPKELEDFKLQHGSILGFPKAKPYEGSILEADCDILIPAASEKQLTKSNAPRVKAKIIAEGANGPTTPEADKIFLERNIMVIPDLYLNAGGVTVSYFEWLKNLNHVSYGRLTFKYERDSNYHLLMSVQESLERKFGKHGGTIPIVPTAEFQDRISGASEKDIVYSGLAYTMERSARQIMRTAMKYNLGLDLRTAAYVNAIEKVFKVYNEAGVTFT
Procedure: as §1, §2

hGDHH454Y [2] = assay: as above; parameters: species or system human; conditions: KD hGDHH454Y versus wild-type
Procedure: as §1, §2

bovine GDH [3] = target: T3, bovine GDH (Bos taurus, UniProt P00366); assay: Trypsin degradation assay of bovine GDH (SDS-PAGE gel); type: biochemical; conditions: 20 μg/mL trypsin; for effect on trypsin digestion of Bo.GDH: low and high concentrations (GTP 10 or 50 mM; EGCG 0.05 or 5 mM), 37 °C 1 h
T3 construct: purchased
T3 sequence (P00366 58-558): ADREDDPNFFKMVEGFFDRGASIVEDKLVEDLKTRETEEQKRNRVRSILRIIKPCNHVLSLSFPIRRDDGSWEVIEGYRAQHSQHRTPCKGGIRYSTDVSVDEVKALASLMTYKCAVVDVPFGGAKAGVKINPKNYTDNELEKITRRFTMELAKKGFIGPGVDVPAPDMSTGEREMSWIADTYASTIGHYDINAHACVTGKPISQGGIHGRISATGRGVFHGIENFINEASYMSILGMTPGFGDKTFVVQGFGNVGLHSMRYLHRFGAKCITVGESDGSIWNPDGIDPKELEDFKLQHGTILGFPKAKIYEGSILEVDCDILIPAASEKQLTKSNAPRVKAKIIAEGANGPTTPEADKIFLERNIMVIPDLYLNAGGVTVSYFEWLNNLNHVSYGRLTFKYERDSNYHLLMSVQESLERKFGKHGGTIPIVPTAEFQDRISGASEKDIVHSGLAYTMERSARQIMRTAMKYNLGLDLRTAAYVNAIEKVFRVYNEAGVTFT
Procedure: (§3) Trypsin (final concentration 20 μg/mL) were mixed with 1 mg/mL (final concentration) hGDH-H454Y or bovine-GDH or BSA, respectively, in Eppendorf (EP) tubes in a phosphate buffer (pH8; 10 mM Na3PO4, 50 mM K3PO4, 100 mM NH4HCO3, 0.1% Tween80 and 0.1% Tween). Then proteins were subjected to digestion in a wet chamber at 37 °C for 1 h. Each sample was analyzed by denaturing SDS-PAGE gel. All experiments were repeated 3 times.
(§4) 2.5 mg/mL bovine GDH (final concentration) or 2.5 mg/mL BSA proteins were mixed with various compounds (10 mM or 50 mM GTP; 0.05 mM or 5 mM EGCG) in EP tubes at room temperature for 1 h. To each tube, 20 μg/mL trypsin was added, and the reaction was carried out in a wet chamber at 37 °C for 1 h. Samples were analyzed by both denaturing SDS-PAGE gel and native-PAGE gel. All experiments were repeated 3 times.
(§5) The dried gel was placed in the imager and photographed after the bands were clear. The gray value of the bands was calculated on a uniform background using Image-J software (1.53a). The ratio of the gray value of the strips under each experimental condition to the gray value of the control strips was calculated, as it is the relative gray value of the strips under that experimental condition.

hGDHH454Y [4] = target: T2, hGDHH454Y; assay: Trypsin degradation assay of hGDHH454Y (SDS-PAGE gel); type: biochemical
Procedure: as §3, §4, §5

BSA = target: T4, BSA (Bos taurus, UniProt P02769); assay: Trypsin degradation assay of BSA (SDS-PAGE gel); type: biochemical, bovine
T4 construct: purchased Biosharp
T4 sequence (P02769 25-607): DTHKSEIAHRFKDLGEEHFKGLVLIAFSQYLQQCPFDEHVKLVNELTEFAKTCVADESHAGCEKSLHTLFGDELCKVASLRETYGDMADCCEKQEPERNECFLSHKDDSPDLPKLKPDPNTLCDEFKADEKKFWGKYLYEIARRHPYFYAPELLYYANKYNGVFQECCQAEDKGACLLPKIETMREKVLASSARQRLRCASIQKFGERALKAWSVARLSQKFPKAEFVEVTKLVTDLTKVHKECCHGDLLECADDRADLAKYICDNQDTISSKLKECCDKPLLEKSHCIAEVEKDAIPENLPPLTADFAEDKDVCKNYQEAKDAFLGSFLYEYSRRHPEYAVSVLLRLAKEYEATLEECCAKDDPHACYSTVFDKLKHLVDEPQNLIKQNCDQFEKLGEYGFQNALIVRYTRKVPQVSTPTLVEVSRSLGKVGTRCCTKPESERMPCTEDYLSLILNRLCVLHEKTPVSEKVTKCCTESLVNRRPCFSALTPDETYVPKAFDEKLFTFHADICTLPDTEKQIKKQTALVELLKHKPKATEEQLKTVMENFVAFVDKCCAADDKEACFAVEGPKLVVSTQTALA
Procedure: as §3, §4, §5

bovine GDH hexamer = target: T5, bovine GDH hexamer (Bos taurus, UniProt P00366); assay: Native-PAGE gel analysis of interaction of EGCG, bovine GDH and trypsin; type: biochemical
T5 construct: purchased
T5 sequence (P00366 58-558): as the sequence (P00366 58-558) above
Text: To further understand the mechanism of EGCG promoting GDH protein degradation, we investigated the interactions among EGCG, GDH, and trypsin by native gel analysis. Because the bovine GDH protein sequence shares 98% homology with the human GDH sequence and 100% homology similarity in the substrate and regulatory binding sites, we used bovine GDH as a substitute for wild-type human GDH in our studies. […] Taken together, the mechanism might be the following: binding of EGCG to hexametric GDH breaks down the hexamer into monomers, and further EGCG–trypsin complex facilitates the GDH degradation.
as §4, §5

bovine GDH [5] = target: T3, bovine GDH; assay: GDH inhibition assay (EZMTT detection); type: biochemical; conditions: for increase in IC50 on increasing GDH concentration by 8 times: 0.3 to 2.5 mg/mL GDH
Procedure: Since both GTP and EGCG are known allosteric GDH inhibitors, we tested their dose-dependent inhibition of different levels of GDH protein. […] EGCG inhibition of GDH is less affected by the GDH enzyme concentration.
[…] After 0.5 h pre-incubation, a mixture of Glu (10 mM final), NADP^+ ([…]), and the EZMTT detection reagent were added to each well, and the reaction was carried out at room temperature for 1 h before the absorbance measurement at 450 nm. To exclude assay artifacts, controls with no GDH were also used, and all experiments were carried out in triplicate and repeated 3 times.

[6] = 20 μg/mL trypsin, 1 mg/mL protein, 1 h
[7] = high concentrations: 50 mM GTP, 5 mM EGCG
[8] = lower concentrations: GTP 10 mM, EGCG 0.05 mM

T1 sequence (P00367 54-558): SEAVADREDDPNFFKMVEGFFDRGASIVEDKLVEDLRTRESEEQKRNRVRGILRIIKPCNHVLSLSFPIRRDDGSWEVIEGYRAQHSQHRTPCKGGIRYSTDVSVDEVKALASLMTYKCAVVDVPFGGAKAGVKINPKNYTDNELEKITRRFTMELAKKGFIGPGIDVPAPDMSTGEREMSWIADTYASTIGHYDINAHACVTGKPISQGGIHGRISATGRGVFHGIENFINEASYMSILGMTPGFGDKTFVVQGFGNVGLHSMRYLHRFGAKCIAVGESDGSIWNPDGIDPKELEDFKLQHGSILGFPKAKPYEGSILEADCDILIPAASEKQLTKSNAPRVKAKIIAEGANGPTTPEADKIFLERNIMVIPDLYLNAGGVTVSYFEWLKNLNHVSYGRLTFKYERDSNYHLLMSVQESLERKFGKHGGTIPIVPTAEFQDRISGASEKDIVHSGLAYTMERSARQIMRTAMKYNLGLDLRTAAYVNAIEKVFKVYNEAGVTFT

| Kd (wild-type hGDH) [µM] | Kd (hGDHH454Y [1]) [µM] | fold stronger affinity (KD) for wild-type GDH than for the H454Y mutant (hGDHH454Y [2]) | degradation by trypsin alone (bovine GDH [3]; 1 mg/mL protein, 1 h) | degradation by trypsin alone (hGDHH454Y [4]; [6]) | degradation by trypsin alone (BSA; [6]) | effect on hexamers of bovine GDH (bovine GDH hexamer; trypsin 20–500 μg/mL) | increase in IC50 on increasing GDH concentration by 8 times (bovine GDH [5]) [fold] | IC50 (bovine GDH [5]; bovine GDH 0.3 mg/mL) [µM] | IC50 (bovine GDH [5]; bovine GDH 2.5 mg/mL) [µM] | effect on hGDHH454Y hydrolysis by trypsin (hGDHH454Y [4]; GTP up to 50 mM) | effect on trypsin digestion of BSA (BSA; [7]) | effect on trypsin digestion of BSA (BSA; [8]) | effect on hGDHH454Y hydrolysis by trypsin (hGDHH454Y [4]; 5 mM EGCG) | effect on hexamers of bovine GDH (bovine GDH hexamer; 5 mM EGCG) | Compound | effect on trypsin digestion of Bo.GDH (bovine GDH [3]) | monomeric GDH degradation by trypsin (bovine GDH hexamer; 5 mM EGCG added to GDH and 20 μg/mL trypsin) |
| --- | --- | --- | --- | --- | --- | --- | --- | --- | --- | --- | --- | --- | --- | --- | --- | --- | --- |
| < 1e-06 | 1500 | 10^9 fold | significant hydrolysis | did not show observable degradation | significant hydrolysis | converted to monomers |  |  |  |  |  |  |  |  | Trypsin |  |  |
|  |  |  |  |  |  |  | 1000 | 16 | 16900 | no effect | prevented BSA digestion | essentially no significant effect |  |  | Nc1nc2c(ncn2[C@@H]2O[C@H](COP(=O)(O)OP(=O)(O)OP(=O)(O)O)[C@@H](O)[C@H]2O)c(=O)[nH]1 [GTP] | prevented the trypsin digestion |  |
| 4.2 | 68 | 17 fold |  |  |  |  | 50 | 2.7 | 138 |  | promoted BSA degradation | essentially no significant effect | promote | converted to monomers | O=C(O[C@@H]1Cc2c(O)cc(O)cc2O[C@@H]1c1cc(O)c(O)c(O)c1)c1cc(O)c(O)c(O)c1 [EGCG, (−)-cis-2-(3,4,5-trihydroxyphenyl)-3,4-dihydro-1(2H)-benzopyran-3,5,7-triol 3-gallate] | greatly increased trypsin digestion in a dose-dependent manner | more monomeric GDH degradation was observed |

Source: publication PMC12196458, “An Alternative Mechanism of Glutamate Dehydrogenase Inhibition by EGCG: Promotion of Protein Degradation” (Pharmaceuticals, 2025)
